Laboratory results as given in the supplement of paper PMC7661543.
± gives the standard deviation of the averaged measurements.

Assays:
Test in all cases: relative cell number vs DMSO control (72 h) (% of DMSO); higher = less growth inhibition (more cells)
Settings in all cases: sgRNA knockout: sgNT
BT-20 = tested on: BT-20
Procedure: (§1)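 QMAP-Seq: a pool of 5 breast cancer cell lines (ZR-75-1, SKBR3, HCC-38, MDA-MB-231, BT-20), each carrying 12 doxycycline-inducible Cas9 sgRNA perturbations (11 knockouts plus non-targeting sgNT), was treated with compounds for 72 h at four 10-fold doses (10 nM-10 uM or 1 nM-1 uM range). Barcodes were amplified and sequenced, and cell number was interpolated from 293T spike-in standard curves. The result is expressed as % of the median of DMSO wells. Two biological replicates.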

HCC-38 = tested on: HCC-38
Procedure: as §1

MDA-MB-231 = tested on: MDA-MB-231
Procedure: as §1

SKBR3 = tested on: SKBR3
Procedure: as §1

ZR-75-1 = tested on: ZR-75-1
Procedure: as §1

SMILES | relative cell number (BT-20; 10 nM) | relative cell number (BT-20; 100 nM) | relative cell number (BT-20; 1000 nM) | relative cell number (BT-20; 10000 nM) | relative cell number (HCC-38; 10 nM) | relative cell number (HCC-38; 100 nM) | relative cell number (HCC-38; 1000 nM) | relative cell number (HCC-38; 10000 nM) | relative cell number (MDA-MB-231; 10 nM) | relative cell number (MDA-MB-231; 100 nM) | relative cell number (MDA-MB-231; 1000 nM) | relative cell number (MDA-MB-231; 10000 nM) | relative cell number (SKBR3; 10 nM) | relative cell number (SKBR3; 100 nM) | relative cell number (SKBR3; 1000 nM) | relative cell number (SKBR3; 10000 nM) | relative cell number (ZR-75-1; 10 nM) | relative cell number (ZR-75-1; 100 nM) | relative cell number (ZR-75-1; 1000 nM) | relative cell number (ZR-75-1; 10000 nM) | relative cell number (BT-20; 1 nM) | relative cell number (HCC-38; 1 nM) | relative cell number (MDA-MB-231; 1 nM) | relative cell number (SKBR3; 1 nM) | relative cell number (ZR-75-1; 1 nM)
CS(=O)(=O)CCNCc1ccc(-c2ccc3ncnc(Nc4ccc(OCc5cccc(F)c5)c(Cl)c4)c3c2)o1 [Lapatinib] | 96.3 ± 16 | 84.7 ± 12 | 78.7 ± 9.5 | 77 ± 4.7 | 97.5 ± 7 | 87 ± 6.9 | 89.7 ± 7.5 | 60.2 ± 1.2 | 120 ± 15 | 90 ± 36 | 83.6 ± 3 | 38.2 ± 8.8 | 77.6 ± 11 | 73.9 ± 0.55 | 64.9 ± 19 | 16.3 ± 2.1 | 112 ± 32 | 63.6 ± 13 | 86.8 ± 17 | 33.4 ± 10 |  |  |  |  | 
COc1cc2nccc(Oc3ccc(NC(=O)NC4CC4)c(Cl)c3)c2cc1C(N)=O [Lenvatinib] | 94.9 ± 21 | 97.5 ± 14 | 128 ± 7.1 | 93.5 ± 36 | 95.3 ± 5.8 | 96.8 ± 4.3 | 101 ± 33 | 68.4 ± 10 | 94.7 ± 34 | 122 ± 7.1 | 114 ± 15 | 86.5 ± 25 | 111 ± 9.8 | 92.6 ± 8.6 | 85.9 ± 42 | 94.1 ± 35 | 84.1 ± 11 | 92.2 ± 22 | 108 ± 20 | 90.8 ± 15 |  |  |  |  | 
N#Cc1ccc(C(c2ccc(C#N)cc2)n2cncn2)cc1 [Letrozole] | 89.6 ± 27 | 95.8 ± 6.8 | 104 ± 16 |  | 107 ± 13 | 111 ± 12 | 95 ± 12 |  | 109 ± 10 | 77.2 ± 7.3 | 106 ± 11 |  | 97.5 ± 23 | 110 ± 22 | 121.06 ± 0.081 |  | 93.6 ± 24 | 106 ± 30 | 60.6 ± 7.9 |  | 83 ± 35 | 94.5 ± 6.1 | 84.7 ± 9.7 | 87.5 ± 18 | 109 ± 14
Cc1ccc(F)c(NC(=O)Nc2ccc(-c3cccc4[nH]nc(N)c34)cc2)c1 [Linifanib] | 73.8 ± 4.6 | 105 ± 23 | 89.1 ± 1 | 60.5 ± 3.3 | 94.4 ± 14 | 77.6 ± 10 | 118 ± 15 | 55.4 ± 4.2 | 70.5 ± 23 | 112 ± 30 | 100 ± 22 | 22.1 ± 0.58 | 88.8 ± 1.8 | 107 ± 3.3 | 121 ± 7.9 | 40 ± 0.42 | 86.4 ± 18 | 97.6 ± 3.9 | 93.6 ± 40 | 33.4 ± 4.6 |  |  |  |  | 
C[C@]1(O)C[C@@H](c2nc(-c3ccc4ccc(-c5ccccc5)nc4c3)c3c(N)nccn32)C1 [Linsitinib] | 111 ± 19 | 121 ± 28 | 79.2 ± 3.2 | 102 ± 11 | 95.4 ± 8 | 99.1 ± 12 | 78 ± 3.6 | 70.1 ± 4.4 | 116 ± 10 | 104 ± 14 | 65.3 ± 20 | 64.9 ± 13 | 94.7 ± 12 | 104 ± 18 | 78.71 ± 0.77 | 78.1 ± 11 | 90.6 ± 23 | 95.7 ± 6.6 | 70.9 ± 15 | 65.7 ± 3.7 |  |  |  |  | 
Nc1nc(OCc2cc(Br)cs2)c2[nH]cnc2n1 [Lomeguatrib] | 101 ± 13 | 115 ± 3.5 | 89.5 ± 11 | 93.7 ± 13 | 98.2 ± 6.3 | 88.5 ± 10 | 89.6 ± 22 | 81.9 ± 8.3 | 117 ± 22 | 125 ± 8.7 | 127.8 ± 0.46 | 86.4 ± 4.3 | 111 ± 1.7 | 68.1 ± 13 | 104 ± 14 | 90.4 ± 27 | 103 ± 42 | 127 ± 3.4 | 78.2 ± 47 | 74.8 ± 5.2 |  |  |  |  | 
CC[C@H](C)C(=O)O[C@H]1C[C@@H](C)C=C2C=C[C@H](C)[C@H](CC[C@@H]3C[C@@H](O)CC(=O)O3)[C@H]21 [Lovastatin] | 114 ± 20 | 78.7 ± 11 | 89.9 ± 35 | 78.8 ± 12 | 96.5 ± 11 | 85.9 ± 6.2 | 102 ± 22 | 73.4 ± 13 | 112 ± 28 | 52.2 ± 31 | 83 ± 29 | 15.7 ± 6.2 | 103 ± 22 | 81.1 ± 12 | 93.1 ± 11 | 78.4 ± 22 | 138 ± 33 | 67.2 ± 6.6 | 100.5 ± 0.94 | 88.2 ± 6.5 |  |  |  |  | 
CC(C)C[C@@H](C=O)NC(=O)[C@H](CC(C)C)NC(=O)[C@H](CC(C)C)NC(=O)OCc1ccccc1 [MG132] | 102 ± 21 | 113 ± 32 | 35.4 ± 8.1 | 12 ± 0.91 | 92.8 ± 13 | 95.7 ± 16 | 5.97 ± 0.84 | 8.104 ± 0.025 | 121 ± 1.8 | 77.3 ± 41 | 7.19 ± 1.8 | 7.81 ± 2.5 | 111 ± 7.2 | 99.3 ± 22 | 14 ± 1.8 | 9.81 ± 0.2 | 80.8 ± 16 | 97.1 ± 11 | 24.7 ± 3.3 | 6.78 ± 1.8 |  |  |  |  | 
O=C(O)CC[C@H]1CC[C@@](c2cc(F)ccc2F)(S(=O)(=O)c2ccc(Cl)cc2)CC1 [MK0752] | 137 ± 39 | 112 ± 41 | 145 ± 3.2 | 134 ± 1.4 | 135 ± 24 | 107 ± 2.6 | 112 ± 14 | 115 ± 43 | 170 ± 61 | 93.4 ± 20 | 124 ± 7.5 | 94.4 ± 51 | 172 ± 42 | 114 ± 19 | 107 ± 24 | 111 ± 27 | 120 ± 36 | 88.2 ± 30 | 107 ± 22 | 127 ± 28 |  |  |  |  | 
C=CCn1c(=O)c2cnc(Nc3ccc(N4CCN(C)CC4)cc3)nc2n1-c1cccc(C(C)(C)O)n1 [MK1775] | 95.2 ± 12 | 84.17 ± 0.44 | 42.9 ± 2.7 | 31.7 ± 1.8 | 97.2 ± 20 | 76.6 ± 6.7 | 35.3 ± 2.2 | 29.548 ± 0.018 | 81.5 ± 35 | 74 ± 8 | 20.3 ± 8 | 13.8 ± 6.6 | 112 ± 1.2 | 108 ± 18 | 29.8 ± 14 | 14.7 ± 1.8 | 138 ± 30 | 77.7 ± 43 | 51.7 ± 24 | 15.6 ± 6 |  |  |  |  | 
CC(C)C[C@H](NC(=O)CNC(=O)c1cc(Cl)ccc1Cl)B(O)O [MLN2238] | 85.1 ± 6.1 | 91 ± 27 | 40.2 ± 3.5 | 15 ± 6.4 | 91.7 ± 16 | 50.2 ± 2.5 | 5.9 ± 0.86 | 4.82 ± 1.7 | 94.1 ± 17 | 65.3 ± 5 | 8.44 ± 0.14 | 4.72 ± 0.16 | 87.5 ± 27 | 54.1 ± 9.5 | 9.25 ± 0.68 | 2.47 ± 0.24 | 93.7 ± 33 | 81.4 ± 28 | 17.8 ± 7.5 | 10.9 ± 8 |  |  |  |  | 
Cc1ccc(NC(=O)c2ccc(CN3CCN(C)CC3)cc2)cc1Nc1nc(-c2cccnc2)cs1 [Masitinib] | 92.1 ± 2.6 | 80.9 ± 25 | 95.2 ± 38 | 70.8 ± 23 | 106 ± 6.1 | 78.71 ± 0.36 | 76.6 ± 17 | 97.6 ± 2.4 | 91 ± 41 | 74.9 ± 12 | 64.2 ± 30 | 50.7 ± 4.3 | 78.7 ± 58 | 99.4 ± 23 | 67.4 ± 6.4 | 66.6 ± 0.77 | 70.6 ± 28 | 76.2 ± 9.5 | 94.7 ± 34 | 34.2 ± 1.2 |  |  |  |  | 
